These results are taken from US5525594A, “Treatment of hyperandrogenic disorders” (Roussel Uclaf, priority 1993, dated 1996).

pIC50: −log10 of the molar value.

This test addresses T1, 5α-reductase (Homo sapiens, UniProt P31213).
T1 construct: Homogenates of human prostates obtained by radical prostatectomies; from tissue; host or cells: human prostate from radical prostatectomy for benign hyperplasia; resuspended 140,000 g pellet of the homogenate
T1 sequence (P31213 1-254): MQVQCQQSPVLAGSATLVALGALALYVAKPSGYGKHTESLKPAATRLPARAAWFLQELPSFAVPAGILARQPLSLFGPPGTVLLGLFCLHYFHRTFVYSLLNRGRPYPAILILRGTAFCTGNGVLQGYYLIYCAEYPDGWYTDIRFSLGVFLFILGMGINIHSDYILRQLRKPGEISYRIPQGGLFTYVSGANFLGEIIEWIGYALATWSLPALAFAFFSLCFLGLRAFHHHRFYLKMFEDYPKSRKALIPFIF
The experiment in a line: 5α-reductase activity test in vitro, human prostate homogenate, testosterone substrate, HPLC measurement of 5α-reduced metabolites. To be noted: homogenates of human prostates (BHP), pH 5.5, 37° C., 30 minutes, read-out: IC50 for inhibition of the 5α-reductase activity of the control. Format: biochemical. How it is done:
The test for measuring the 5α-reductase activity was carried cut in vitro by incubating the enzyme and its substrate (testosterone) and by measuring by HPLC chromatography the amount of 5α-reduced metabolites formed (dihydrotestosterone (DHT) and 5α-androstane-diol). Homogenates of human prostates obtained by radical prostatectomies due to benign hyperplasia of the prostate (BHP) were used.
The prostate was collected straight after leaving the operating theater suite and packed in aluminum paper placed in a container filled with dry ice. At the laboratory, if the homogenate was not prepared immediately, the prostate could be stored at -80° C. […]
b) Mixture of "unlabelled" testosterone and "tritiated testosterone" with an isotopic dilution of 100: To obtain a 1 mM solution of testosterone, 2.88 mg of "unlabelled" testosterone were weighed out which was dissolved in 10 ml of ethanol. […] Substrate (S) was ready. […]
The amounts of metabolites produced during the incubation were measured by separating the compounds formed by reversed-phase high performance liquid chromatography (HPLC). […] The extract collected after extraction was injected automatically onto the HPLC system and by the linear radioactivity measurement system (Berthold), only the radioactive metabolites, formed from the testosterone labelled with the substrate, were evaluated. […]

Usually pIC50 stands for the negative decadic logarithm of the IC50, by convention in mol/L.

Consider oenotheine B, for which the pIC50 was 4.66.
